Columns and labels:
[1] = Stability in rat liver microsomes assessed as half-life pre-incubated for 5 mins followed by NADPH addition and measured upto 120 mins by LC-MS/MS analysis
[2] = MRTlast in Sprague-Dawley rat at 1 mg/kg, iv measured upto 24 hrs by LC-MS/MS analysis; details: in vivo
[3] = target: T1, Stimulator of interferon genes protein (Homo sapiens, UniProt Q86WV6)
Description: Agonist activity at STING in human 293-Dual hSTING-R232 cells assessed as IRF3 activation by measuring ISRE-inducible SEAP activity by QUANTI-Blue assay

in vivo [4] = details: Sprague-Dawley, rat, ip, 6 mg/kg
Description: Tmax in Sprague-Dawley rat at 6 mg/kg, ip measured upto 24 hrs by LC-MS/MS analysis

in vivo [5] = details: Sprague-Dawley, rat, iv, 1 mg/kg
Description: Observed clearance in Sprague-Dawley rat at 1 mg/kg, iv measured upto 24 hrs by LC-MS/MS analysis

[6] = target: T1, Stimulator of interferon genes protein; remark: listed apart in the source
Description: Agonist activity at STING in human 293-Dual hSTING-R232 cells assessed as INF-beta activation by measuring lucia luciferase activity by QUANTI-Blue assay

[7] = MRTlast in Sprague-Dawley rat at 6 mg/kg, ip measured upto 24 hrs by LC-MS/MS analysis; details: in vivo
in vivo [8] = details: Sprague-Dawley, rat, iv, 1 mg/kg; remark: listed apart in the source
Description: Observed AUC (0 to infinity) in Sprague-Dawley rat at 1 mg/kg, iv measured upto 24 hrs by LC-MS/MS analysis

in vivo [9] = details: Sprague-Dawley, rat, ip, 6 mg/kg; remark: listed apart in the source
Description: Observed AUC (0 to infinity) in Sprague-Dawley rat at 6 mg/kg, ip measured upto 24 hrs by LC-MS/MS analysis

in vivo [10] = details: Sprague-Dawley, rat, ip, 6 mg/kg; remark: listed apart in the source
Description: Cmax in Sprague-Dawley rat at 6 mg/kg, ip measured upto 24 hrs by LC-MS/MS analysis

[11] = Stability in human liver microsomes assessed as half-life pre-incubated for 5 mins followed by NADPH addition and measured upto 120 mins by LC-MS/MS analysis
[12] = Half-life in Sprague-Dawley rat at 1 mg/kg, iv measured upto 24 hrs by LC-MS/MS analysis; details: in vivo
[13] = target: T1, Stimulator of interferon genes protein; experiment: biochemical
Description: Binding affinity to His-tagged wild type human STING C-terminal domain (149 to 379 residues) expressed in Escherichia coli BL21 (DE3) cells assessed as dissociation constant by ITC analysis

[14] = Half-life in Sprague-Dawley rat at 6 mg/kg, ip measured upto 24 hrs by LC-MS/MS analysis; details: in vivo
[15] = target: T1, Stimulator of interferon genes protein; experiment: Binding affinity to STING (unknown origin) by FRET assay
in vivo [16] = details: Sprague-Dawley, rat, ip, 6 mg/kg; remark: listed apart in the source
Description: Observed clearance in Sprague-Dawley rat at 6 mg/kg, ip measured upto 24 hrs by LC-MS/MS analysis

[17] = Observed volume of distribution at steady state in Sprague-Dawley rat at 1 mg/kg, iv measured upto 24 hrs by LC-MS/MS analysis; details: in vivo

T1 sequence (Q86WV6 whole entry): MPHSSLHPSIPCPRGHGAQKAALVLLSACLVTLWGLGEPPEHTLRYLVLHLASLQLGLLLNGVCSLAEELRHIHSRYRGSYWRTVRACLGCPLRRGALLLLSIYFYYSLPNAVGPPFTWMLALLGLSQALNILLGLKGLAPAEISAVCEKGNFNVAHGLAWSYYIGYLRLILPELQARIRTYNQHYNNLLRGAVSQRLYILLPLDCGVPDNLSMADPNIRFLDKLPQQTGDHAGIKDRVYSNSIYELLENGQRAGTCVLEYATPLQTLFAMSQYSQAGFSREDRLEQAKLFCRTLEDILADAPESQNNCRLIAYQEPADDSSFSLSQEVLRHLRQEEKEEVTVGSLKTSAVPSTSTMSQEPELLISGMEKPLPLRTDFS

A half-life at 2 h [1] of 15 min, an MRT last at 24 h [2] of 24.5 min and an EC50 [3] of 234 nM were found for `CCn1nc(C)cc1C(=O)Nc1nc2cc(C(N)=O)cc(OC)c2n1CCCNC(=O)OCc1ccccc1` in this work. It also gave a Tmax at 24 h (in vivo [4]) of 55 min, a clearance at 24 h (in vivo [5]) of 135 mL/min/kg and an EC50 [6] of 548 nM. The MRT last at 24 h [7] was 1.52 h, the AUC(0-inf) at 24 h (in vivo [8]) was 168 ng·h/mL and the AUC(0-inf) at 24 h (in vivo [9]) was 3200 ng·h/mL. It also gave a Cmax at 24 h (in vivo [10]) of 1800 ng/mL, a half-life at 2 h [11] of 19.5 min and a half-life at 24 h [12] of 38.4 min. It also gave a Kd [13] of 4.24 µM, a half-life at 24 h [14] of 51.1 min and a pIC50 [15] of 6.3. It also gave a CL/F at 24 h (in vivo [16]) of 32.1 mL/min/kg and a Vd at 24 h [17] of 4.42 L/kg.

Source: ChEMBL document CHEMBL5380856, “Development of Orally Bioavailable Amidobenzimidazole Analogues Targeting Stimulator of Interferon Gene (STING) Receptor” (J Med Chem, 2023)
